# Experimental data published in patent US8273769B2, “Phenoxy acetic acid derivatives” (Merck Serono SA, priority 2009, dated 2012).
# Tests used:
# [1] = target: T1, CRTH2 (Homo sapiens, UniProt Q9Y5Y4); test: Radioligand binding Scintillation Proximity Assay ([3H]PGD2, hCRTH2-CHO cell membranes); design: host or cells: CHO cells; conditions: 1.5 nM [3H]PGD2, hCRTH2-CHO cell membranes, SPA
# T1 sequence (Q9Y5Y4 1-395): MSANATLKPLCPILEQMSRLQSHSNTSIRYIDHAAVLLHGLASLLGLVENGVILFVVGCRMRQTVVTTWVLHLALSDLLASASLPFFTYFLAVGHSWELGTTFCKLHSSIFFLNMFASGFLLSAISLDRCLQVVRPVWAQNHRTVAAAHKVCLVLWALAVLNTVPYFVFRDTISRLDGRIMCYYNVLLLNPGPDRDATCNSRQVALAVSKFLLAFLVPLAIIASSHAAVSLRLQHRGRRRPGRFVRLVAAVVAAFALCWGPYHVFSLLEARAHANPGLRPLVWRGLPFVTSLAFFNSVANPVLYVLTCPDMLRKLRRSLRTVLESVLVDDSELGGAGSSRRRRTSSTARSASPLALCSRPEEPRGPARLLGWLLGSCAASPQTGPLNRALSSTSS
# Method in brief: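 SPA competition binding at room temperature, 90 min with agitation: 1.5 nM [3H]PGD2, 10-50 μg/ml hCRTH2-CHO membrane protein, WGA SPA beads, HEPES pH 7.4 with 10 mM MnCl2, 1% DMSO. Non-specific binding defined with 10 μM PGD2; scintillation counting.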
# [2] = target: T1, CRTH2; test: Cellular Dielectric Spectroscopy (CHO-CRTH2 cells); type: cell-based; design: expressed in transfected cells; host or cells: CHO-CRTH2 cells; conditions: for IC50: antagonist mode, fixed concentration of PGD2 (EC80); for EC50 / Emax: partial agonists, agonist activity without PGD2
# Method: Cellular Dielectric Spectroscopy (CDS) is a label-free technology based on the measurement of complex impedance changes (delta Z or dZ). Impedance (Z) is related to the ratio of voltage to current as described by Ohm's law (Z=V/I). In order to measure the changes in impedance that occur in response to receptor stimulation, mammalian cells are seeded onto a custom 96-well microliter plate that contains electrodes at the bottom of each well. Key contributors to the impedance measurements are changes in cell-substrate adherence, changes in cell shape and volume, and changes in cell-cell interactions. These factors individually or collectively affect the flow of current, influencing the magnitude and characteristics of the signal measured. G-protein coupled receptors ligand-induced activity can be measured using this technology and specific G protein coupling can be identified. Activities of reference agonist and antagonist molecules of CRTH2 have been measured using this assay and similar results were obtained compared to different functional assays.
# CHO-CRTH2 cells are cultured in HAM's F12 (Lonza, Switzerland) supplemented with 10% foetal calf serum (PAA, Australia) and 400 μg/ml Geneticin. 100000 cells/well are seeded in standard 96W Microplates (MDS Analytical Technologies) and incubated at 37° C. in 5% CO2 for 24 hours. Cells are washed twice with 135 μl of cell key buffer (Hank's Balanced Salt Solution 1× (HBSS) (Invitrogen) supplemented with 10 mM HEPES pH 7.4 in presence of 1% DMSO). For EC50 determination. 15 μl of increasing concentration of Compounds of Formula (I) diluted in cell key buffer are added to the cells and agonist activity is then recorded for 25 minutes. […] Results are expressed as the amplitude between the highest and the lowest signal produced (max-min). Basal and maximum activities are measured, respectively in absence or presence of PGD2 (EC80).
SMILES,IC50 [1] [nM],IC50 [2] [nM],EC50 [2] [nM],Emax [2] [%]
"Cc1ccncc1C#Cc1cc(Cl)ccc1OCC(=O)O [Example 15, {4-chloro-2-[(4-methylpyridin-3-yl)ethynyl]phenoxy}acetic acid]",30,74,53,46
"CC(C)c1ccc(S(C)(=O)=O)cc1C#Cc1cc(C#N)ccc1OCC(=O)O [Example 71, (4-cyano-2-{[2-isopropyl-5-(methylsulfonyl)phenyl]ethynyl}phenoxy)acetic acid]",16,15,–,–
"CCCS(=O)(=O)c1cccc(C#Cc2cc(-c3ccccc3)ccc2OCC(=O)O)c1 [Example 131, [(3-{[3-(Propylsulfonyl)phenyl]ethynyl}biphenyl-4-yl)oxy]acetic acid]",24,–,74,68
"CCCCCCc1ccncc1C#Cc1cc(Cl)ccc1OCC(=O)O [Example 29, {4-chloro-2-[(4-hexylpyridin-3-yl)ethynyl]phenoxy}acetic acid]",51,–,–,–
"CCCS(=O)(=O)c1cccc(C#Cc2cc(-c3ccsc3)ccc2OCC(=O)O)c1 [Example 133, [2-{[3-(propylsulfonyl)phenyl]ethynyl}-4-(3-thienyl)phenoxy]acetic acid]",23,–,–,–
"CN(C)S(=O)(=O)c1cccc(C#Cc2cc(Cl)ccc2OCC(=O)O)c1 [Example 80, [4-chloro-2-({3-[(dimethylamino)sulfonyl]phenyl}ethynyl)phenoxy]acetic acid]",19,–,–,–
"CCN(CC)C(=O)c1ccc(C#Cc2cc(Cl)ccc2OCC(=O)O)cc1S(=O)(=O)C(C)C [Example 165, (4-chloro-2-{[4-[(diethylamino)carbonyl]-3-(isopropylsulfonyl)phenyl]ethynyl}phenoxy)acetic acid]",53,–,–,–
"N#Cc1ccc(OCC(=O)O)c(C#Cc2cncc(S(=O)(=O)N3CC(F)(F)C3)c2)c1 [Example 76, [4-cyano-2-({5-[(3,3-difluoroazetidin-1-yl)sulfonyl]pyridin-3-yl}ethynyl)phenoxy]acetic acid]",171,–,–,–
"Cc1ccc(S(=O)(=O)CCCO)cc1C#Cc1cc(C#N)ccc1OCC(=O)O [Example 73, [4-cyano-2-({5-[(3-hydroxypropyl)sulfonyl]-2-methylphenyl}ethynyl)phenoxy]acetic acid]",57,–,–,–
"CC(C)(C)N1C(=O)c2ccc(C#Cc3cc(Cl)ccc3OCC(=O)O)cc2S1(=O)=O [Example 157, {2-[(2-tert-butyl-1,1-dioxido-3-oxo-2,3-dihydro-1,2-benzisothiazol-6-yl)ethynyl]-4-chlorophenoxy}acetic acid]",17,–,–,–
"O=C(O)COc1ccc(Cl)cc1C#Cc1cccc(CO)c1F [Example 28, (4-chloro-2-{[2-fluoro-3-(hydroxymethyl)phenyl]ethynyl}phenoxy)acetic acid]",48,–,–,–
"CN(C)S(=O)(=O)c1cncc(C#Cc2cc(C#N)ccc2OCC(=O)O)c1 [Example 67, [4-cyano-2-({5-[(dimethylamino)sulfonyl]pyridin-3-yl}ethynyl)phenoxy]acetic acid]",86,34,–,–
"Cc1ccc(S(=O)(=O)CCO)cc1C#Cc1cc(C#N)ccc1OCC(=O)O [Example 64, [4-cyano-2-({5-[(2-hydroxyethyl)sulfonyl]-2-methylphenyl}ethynyl)phenoxy]acetic acid]",136,–,–,–
"COCc1ccc(C#Cc2cc(Cl)ccc2OCC(=O)O)c(F)c1 [Example 34, (4-chloro-2-{[2-fluoro-4-(methoxymethyl)phenyl]ethynyl}phenoxy)acetic acid]",26,–,–,–
"CS(=O)(=O)Cc1cccc(C#Cc2cc(Cl)ccc2OCC(=O)O)c1 [Example 98, [4-chloro-2-({3-[(methylsulfonyl)methyl]phenyl}ethynyl)phenoxy]acetic acid]",60,–,–,–
"COCc1ccc(F)c(C#Cc2cc(Cl)ccc2OCC(=O)O)c1 [Example 30, (4-chloro-2-{[2-fluoro-5-(methoxymethyl)phenyl]ethynyl}phenoxy)acetic acid]",85,–,–,–
"CN(C)C(=O)c1cccc(C#Cc2cc(Cl)ccc2OCC(=O)O)c1 [Example 127, [4-chloro-2-({3-[(dimethylamino)carbonyl]phenyl}ethynyl)phenoxy]acetic acid]",68,–,–,–
"CS(=O)(=O)c1cncc(C#Cc2cc(C#N)ccc2OCC(=O)O)c1 [Example 69, (4-cyano-2-{[5-(methylsulfonyl)pyridin-3-yl}ethynyl]phenoxy)acetic acid]",186,–,–,–
"O=C(O)COc1cc(F)ccc1C#Cc1ccccc1Cl [Example 37, {2-[(2-chlorophenyl)ethynyl]-5-fluorophenoxy}acetic acid]",5940,–,–,–

# Now those with a lower IC50 [1], led by results:
IC50 [1] [nM],IC50 [2] [nM],EC50 [2] [nM],Emax [2] [%],SMILES
13,–,24,62,"CCCS(=O)(=O)c1cccc(C#Cc2cc(C(F)(F)F)ccc2OCC(=O)O)c1 [Example 55, [2-{[3-(propylsulfonyl)phenyl]ethynyl}-4-(trifluoromethyl)phenoxy]acetic acid]"
11,–,–,–,"CCS(=O)(=O)c1ccc(C)c(C#Cc2cc(Cl)ccc2OCC(=O)O)c1 [Example 50, (4-chloro-2-{[5-(ethylsulfonyl)-2-methylphenyl]ethynyl}phenoxy)acetic acid]"
10,37,–,–,"Cc1ccc(S(=O)(=O)CCCO)cc1C#Cc1cc(Cl)ccc1OCC(=O)O [Example 54, [4-chloro-2-({5-[(3-hydroxypropyl)sulfonyl]-2-methylphenyl}ethynyl)phenoxy]acetic acid]"
9,–,–,–,"O=C(O)COc1ccc(Cl)cc1C#Cc1cc(S(=O)(=O)C(F)(F)F)ccc1Cl [Example 130, [4-chloro-2-({2-chloro-5-[(trifluoromethyl)sulfonyl]phenyl}ethynyl)phenoxy]acetic acid]"
7,21,–,–,"CC(C)c1ccc(S(C)(=O)=O)cc1C#Cc1cc(Cl)ccc1OCC(=O)O [Example 70, (4-chloro-2-{[2-isopropyl-5-(methylsulfonyl)phenyl]ethynyl}phenoxy)acetic acid]"
7,–,–,–,"Cc1ccc(S(=O)(=O)Cc2ccccc2)cc1C#Cc1cc(Cl)ccc1OCC(=O)O [Example 91, (2-{[5-(benzylsulfonyl)-2-methylphenyl]ethynyl}-4-chlorophenoxy)acetic acid]"
6,269,–,–,"CC(C)Cc1ccncc1C#Cc1cc(Cl)ccc1OCC(=O)O [Example 43, {4-chloro-2-[(4-isobutylpyridin-3-yl)ethynyl]phenoxy}acetic acid]"
6,83,–,–,"Cc1ccc(S(=O)(=O)N(C)C(C)C)cc1C#Cc1cc(Cl)ccc1OCC(=O)O [Example 87, {4-chloro-2-[(5-{[isopropyl(methyl)amino]sulfonyl}-2-methylphenyl)ethynyl]phenoxy}acetic acid]"
5,118,–,–,"Cc1ccc(S(=O)(=O)NC(C)C)cc1C#Cc1cc(Cl)ccc1OCC(=O)O [Example 86, [4-chloro-2-({5-[(isopropylamino)sulfonyl]-2-methylphenyl}ethynyl)phenoxy]acetic acid]"
5,50,–,–,"Cc1ccc(S(=O)(=O)CC(C)C)cc1C#Cc1cc(Cl)ccc1OCC(=O)O [Example 53, (4-chloro-2-{[5-(isobutylsulfonyl)-2-methylphenyl]ethynyl}phenoxy)acetic acid]"
